These are literature values, as cited in patent publication US20150272891A1, “DOSAGE FORMS COMPRISING APIXABAN AND MATRIX FORMER” (RATIOPHARM GMBH, priority 2012, published 2015).

Each structure is given as a SMILES string.

The conditions of this series: compared with N-1 form.

In the case of `COc1ccc(-n2nc(C(N)=O)c3c2C(=O)N(c2ccc(N4CCCCC4=O)cc2)CC3)cc1` [H2-2 form, 1-(4-methoxyphenyl)-7-oxo-6-[4-(2-oxopiperidin-1-yl)phenyl]-4,5,6,7-tetrahydro-1H-pyrazolo[3,4-c]pyridine-3-carbamide], the “stability of polymorphous form” value is recorded as “less stable than the granular, non-solvate N-1 form”.
